# Measured values as given in US20060111436A1, “Compositions and treatments for modulating kinase and/or HMG-CoA reductase” (priority 2004, published 2006).
# Tests used:
# Format in all cases: biochemical
# [1] = biological target: T1, human recombinant p38α protein kinase (Homo sapiens, UniProt Q16539); test: Cell-free p38α MAP kinase modulation assay (phosphorylation of myelin basic protein); conditions: for p38α AC50 / AC50: concentration to activate phosphorylation of myelin basic protein by 50%, ANO = activation not observed at any concentration tested; for p38α IC50 / IC50: concentration to inhibit phosphorylation of myelin basic protein by 50%, INO = inhibition not observed at any concentration tested; for p38α Max % Act: maximum observed increase in p38 MAP kinase activity in presence of compound; for effect on p38α MAP kinase activity, in words: text summary of Table I; for p38α concentration at which maximum increase in activity is observed: value in parentheses in Max % Act
# T1 construct: purchased UBI 14-251; host or cells: E. coli
# Experimental: In vitro cell-free p38α MAP kinase modulation assays were conducted by the method as described in Clerk et al., supra, (1998). Briefly, human recombinant p38α protein kinase expressed in E. Coli (UBI #14-251) was used. Myelin basic protein (MBP, UBI #13-110) was employed as substrate, and microtiter plate wells were coated with MBP (0.01 mg/ml) overnight at 4° C. Candidate compound and/or vehicle was preincubated with 0.075 μg/mL enzyme in modified HEPES buffer pH 7.4 at 25° C. for 15 minutes. The reaction was initiated by addition of 100 μM ATP and allowed to proceed for another 60 minutes. The reaction was terminated by aspirating the solution. Phosphorylated MBP was detected by incubation with a mouse monoclonal IgG2a anti-phosphoMBP antibody. Bound anti-phosphoMBP antibody was quantitated by incubation with a HRP conjugated goat anti-mouse IgG.
# [2] = biological target: T2, recombinant human p38δ MAP kinase (Homo sapiens, UniProt O15264); test: Cell-free p38δ MAP kinase modulation assay (phosphorylation of myelin basic protein); conditions: for AC50: concentration to activate phosphorylation of myelin basic protein by 50%, ANO = activation not observed at any concentration tested; for p38δ Max % Act: maximum observed increase in p38 MAP kinase activity in presence of compound; for effect on p38δ MAP kinase activity, in words: text summary of Table I; for p38δ concentration at which maximum increase in activity is observed: value in parentheses under Max % Act
# T2 sequence (O15264 1-365): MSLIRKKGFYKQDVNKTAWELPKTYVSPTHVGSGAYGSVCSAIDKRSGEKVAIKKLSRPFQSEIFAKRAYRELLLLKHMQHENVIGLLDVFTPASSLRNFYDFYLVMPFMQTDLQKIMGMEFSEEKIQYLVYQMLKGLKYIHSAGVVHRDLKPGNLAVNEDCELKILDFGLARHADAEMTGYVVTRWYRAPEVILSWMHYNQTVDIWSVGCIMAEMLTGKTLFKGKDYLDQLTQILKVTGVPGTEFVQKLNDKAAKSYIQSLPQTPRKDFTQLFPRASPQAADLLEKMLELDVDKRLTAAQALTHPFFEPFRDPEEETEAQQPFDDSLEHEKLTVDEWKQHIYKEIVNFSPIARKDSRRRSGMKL
# [3] = biological target: recombinant human p38β MAP kinase (Homo sapiens, UniProt Q15759); test: Cell-free p38β MAP kinase modulation assay (phosphorylation of myelin basic protein); conditions: for AC50: concentration to activate phosphorylation of myelin basic protein by 50%, ANO = activation not observed at any concentration tested; for p38β Max % Act: maximum observed increase in p38 MAP kinase activity in presence of compound; for effect on p38β MAP kinase activity, in words: text summary of Table I; for p38β concentration at which maximum increase in activity is observed: value in parentheses in Max % Act
# [4] = biological target: T3, recombinant human p38γ MAP kinase (Homo sapiens, UniProt P53778); test: Cell-free p38γ MAP kinase modulation assay (phosphorylation of myelin basic protein); conditions: for p38γ Max % Act: maximum observed increase in p38 MAP kinase activity in presence of compound; for effect on p38γ MAP kinase activity, in words: text summary of Table I; for p38γ concentration at which maximum increase in activity is observed: value in parentheses under Max % Act
# T3 sequence (P53778 1-367): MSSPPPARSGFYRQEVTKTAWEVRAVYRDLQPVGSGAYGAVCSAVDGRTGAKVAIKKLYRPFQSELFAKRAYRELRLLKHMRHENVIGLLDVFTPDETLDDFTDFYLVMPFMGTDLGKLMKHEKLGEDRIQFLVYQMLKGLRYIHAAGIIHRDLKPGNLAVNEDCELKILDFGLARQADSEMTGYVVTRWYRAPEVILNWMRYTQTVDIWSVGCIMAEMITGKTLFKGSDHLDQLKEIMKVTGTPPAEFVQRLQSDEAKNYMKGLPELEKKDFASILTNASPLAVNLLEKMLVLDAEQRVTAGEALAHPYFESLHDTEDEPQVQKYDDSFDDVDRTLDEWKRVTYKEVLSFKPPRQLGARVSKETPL
# [5] = concentration to inhibit phosphorylation of myelin basic protein by 50%, INO = inhibition not observed at any concentration tested
# [6] = concentration to activate phosphorylation of myelin basic protein by 50%, ANO = activation not observed at any concentration tested
# T1 sequence (Q16539 whole entry): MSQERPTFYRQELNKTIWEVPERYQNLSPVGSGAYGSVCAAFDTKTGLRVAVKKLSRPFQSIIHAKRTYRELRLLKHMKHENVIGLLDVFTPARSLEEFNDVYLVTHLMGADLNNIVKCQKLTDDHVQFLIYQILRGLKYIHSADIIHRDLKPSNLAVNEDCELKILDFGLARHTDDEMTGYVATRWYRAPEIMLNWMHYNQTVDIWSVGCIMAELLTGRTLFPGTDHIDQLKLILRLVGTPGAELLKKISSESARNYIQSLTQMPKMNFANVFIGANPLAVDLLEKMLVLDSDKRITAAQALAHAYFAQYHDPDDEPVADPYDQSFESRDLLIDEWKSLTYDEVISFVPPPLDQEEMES
# recombinant human p38β MAP kinase, sequence (Q15759 whole entry): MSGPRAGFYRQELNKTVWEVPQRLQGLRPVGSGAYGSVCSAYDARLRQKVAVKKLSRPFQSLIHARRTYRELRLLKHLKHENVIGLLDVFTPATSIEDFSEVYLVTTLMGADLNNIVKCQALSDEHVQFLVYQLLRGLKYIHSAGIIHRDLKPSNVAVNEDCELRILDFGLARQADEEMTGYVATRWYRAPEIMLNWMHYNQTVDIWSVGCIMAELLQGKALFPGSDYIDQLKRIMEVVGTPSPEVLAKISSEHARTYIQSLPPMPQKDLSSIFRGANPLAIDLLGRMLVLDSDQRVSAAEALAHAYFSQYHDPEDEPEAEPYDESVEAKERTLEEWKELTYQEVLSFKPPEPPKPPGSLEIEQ
SMILES,p38α AC50 [1],AC50 [2] [µM],p38δ Max % Act [2] [%],"effect on p38δ MAP kinase activity, in words [2]",p38δ concentration at which maximum increase in activity is observed [2],p38β Max % Act [3] [%],p38β concentration at which maximum increase in activity is observed [3] [µM],"AC50 [4, 6] [µM]","p38γ IC50 [4, 5]",p38γ Max % Act [4] [%],"effect on p38γ MAP kinase activity, in words [4]",p38γ concentration at which maximum increase in activity is observed [4],IC50 [1] [µM],further results
"CC(C)c1nc(N(C)S(C)(=O)=O)nc(-c2ccc(F)cc2)c1/C=C/[C@@H](O)C[C@@H](O)CC(=O)O [Rosuvastatin sodium, reference compound]",ANO,,,,,,,,,,,,,
"CC(C)c1c(C(=O)Nc2ccccc2)c(-c2ccccc2)c(-c2ccc(F)cc2)n1CC[C@@H](O)C[C@@H](O)CC(=O)[O-].CC(C)c1c(C(=O)Nc2ccccc2)c(-c2ccccc2)c(-c2ccc(F)cc2)n1CC[C@@H](O)C[C@@H](O)CC(=O)[O-].[Ca+2] [Atorvastatin calcium, atorvastatin calcium, reference compound]",ANO^d,,,,,,,,,,,,,
"COCc1c(C(C)C)nc(C(C)C)c(/C=C/[C@@H]2C[C@@H](O)CC(=O)O2)c1-c1ccc(F)cc1 [Cerivastatin lactone, cerivastatin lactone]",,~8,158,can activate,(100 μM),143,10,~5,INO,115,can activate,(100 μM),,"p38δ IC50 [2, 5]: INO; AC50 [3]: ~5 µM; p38β IC50 [3, 5]: INO; effect on p38β MAP kinase activity, in words [3]: can activate; AC50 [1]: ~10 µM; p38α IC50 [1]: INO; p38α Max % Act [1]: 76%; effect on p38α MAP kinase activity, in words [1]: can activate; p38α concentration at which maximum increase in activity is observed [1]: 100 µM"
"O=C([O-])C[C@H](O)C[C@H](O)/C=C/c1c(C2CC2)nc2ccccc2c1-c1ccc(F)cc1.O=C([O-])C[C@H](O)C[C@H](O)/C=C/c1c(C2CC2)nc2ccccc2c1-c1ccc(F)cc1.[Ca+2] [Pitavastatin calcium, reference compound]",ANO,,,,,,,,INO,,,,101,"p38γ AC50 [4, 6]: ANO"
"CC(C)n1c(/C=C/C(O)CC(O)CC(=O)O)c(-c2ccc(F)cc2)c2ccccc21 (centres unmarked) [Fluvastatin sodium, fluvastatin sodium, reference compound]",ANO,,,,,,,,,,,,,
"CC(C)c1c(C(=O)Nc2ccccc2)c(-c2ccccc2)c(-c2ccc(F)cc2)n1CC[C@@H]1C[C@@H](O)CC(=O)O1 [Atorvastatin lactone, atorvastatin lactone]",ANO,30 to 100,112,showed both inhibitory and activation activities,(30 μM),19,10,~10,,62,showed both inhibitory and activation activities,(10 μM),31,"IC50 [2, 5]: 83 µM; p38δ Max % Act ([2]; listed as atorvastatin lacton): about 112%; IC50 [3, 5]: 94 µM; IC50 [4, 5]: ~50 µM"
"CCC(C)(C)C(=O)O[C@H]1C[C@@H](C)C=C2C=C[C@H](C)[C@H](CC[C@@H]3C[C@@H](O)CC(=O)O3)[C@H]21 [Simvastatin lactone, simvastatin lactone]",,~2,611,can activate,(100 μM),185,100,3 to 10,INO,127,can activate,(100 μM),,"p38δ IC50 [2, 5]: INO; AC50 [3]: ~15 µM; p38β IC50 [3, 5]: INO; effect on p38β MAP kinase activity, in words [3]: can activate; AC50 [1]: ~20 µM; p38α IC50 [1]: INO^e; p38α Max % Act [1]: 207%; effect on p38α MAP kinase activity, in words [1]: can activate; p38α concentration at which maximum increase in activity is observed [1]: 100 µM"
"COCc1c(C(C)C)nc(C(C)C)c(C=CC(O)CC(O)CC(=O)[O-])c1-c1ccc(F)cc1.COCc1c(C(C)C)nc(C(C)C)c(C=CC(O)CC(O)CC(=O)[O-])c1-c1ccc(F)cc1.[Ca+2] (centres unmarked) [Cerivastatin calcium, reference compound]",ANO,,,,,,,,,,,,> 30,
